US9394266B2, “Solid state forms of cabazitaxel and processes for preparation thereof” (IVAX International GmbH, priority 2012, dated 2016)

Assay: Hygroscopicity test: exposure to controlled relative humidity, XRPD and Karl-Fischer water content before and after
Assay type: physicochemical
Settings: about room temperature; for conversion to another solid state form of Cabazitaxel (polymorphic stability): normal atmospheric humidity, 60%, 80% and 100% RH, two days exposure; for hygroscopicity: various relative humidity conditions
Description: Hygroscopicity Test Procedure:
About 150 mg of a sample was placed to a cell with controlled relative humidity. The samples were exposed to 60%, 80% and 100% relative humidity for a period of two days. XRPD analysis and water content by coulometric Karl-Fischer titration were carried out before and after the exposure to the defined relative humidity. Coulometric Karl-Fischer Titration: Water was determined by KF Oven method (832 KF Thermoprep connected to 831 KF Coulometer). Water from the sample (50 mg of cabazitaxel) was released by nitrogen stream at 130° C. Extraction time was 10 minutes.

Structure (SMILES)	conversion to another solid state form of Cabazitaxel (polymorphic stability)	hygroscopicity
CO[C@H]1C(=O)[C@]2(C)[C@@H](OC)C[C@H]3OC[C@@]3(OC(C)=O)[C@H]2[C@H](OC(=O)c2ccccc2)[C@]2(O)C[C@H](OC(=O)[C@H](O)[C@@H](NC(=O)OC(C)(C)C)c3ccccc3)C(C)=C1C2(C)C [acetone solvate, Cabazitaxel acetone solvate, reference compound]	already transform to the anhydrous form B after two days	–
CO[C@H]1C(=O)[C@]2(C)[C@@H](OC)C[C@H]3OC[C@@]3(OC(C)=O)[C@H]2[C@H](OC(=O)c2ccccc2)[C@]2(O)C[C@H](OC(=O)[C@H](O)[C@@H](NC(=O)OC(C)(C)C)c3ccccc3)C(C)=C1C2(C)C [Form X, Cabazitaxel methyl isobutyl ketone solvate]	does not convert to any other forms of Cabazitaxel	low-hygroscopicity form
CO[C@H]1C(=O)[C@]2(C)[C@@H](OC)C[C@H]3OC[C@@]3(OC(C)=O)[C@H]2[C@H](OC(=O)c2ccccc2)[C@]2(O)C[C@H](OC(=O)[C@H](O)[C@@H](NC(=O)OC(C)(C)C)c3ccccc3)C(C)=C1C2(C)C [Form VII, Cabazitaxel ethyl acetate solvate]	does not convert to any other form of Cabazitaxel	low-hygroscopicity form
